Numbering of substitutions follows the chain as printed. Entries after “also recorded” stand apart in the source; their conditions may differ.
Assays:
[1] = target: T1, ODC (WT, D44A, D243A, E384A) (Homo sapiens, UniProt P11926, D44A); assay: activity of ectopically expressed ODC (WT, D44A, D243A, E384A); assay type: cell-based; conditions: D44A vs D243A, E384A or wildtype ODC
T1 construct: expressed in transfected cells; host or cells: HCT116 colon cancer cells
T1 sequence (P11926 1-461 D44A): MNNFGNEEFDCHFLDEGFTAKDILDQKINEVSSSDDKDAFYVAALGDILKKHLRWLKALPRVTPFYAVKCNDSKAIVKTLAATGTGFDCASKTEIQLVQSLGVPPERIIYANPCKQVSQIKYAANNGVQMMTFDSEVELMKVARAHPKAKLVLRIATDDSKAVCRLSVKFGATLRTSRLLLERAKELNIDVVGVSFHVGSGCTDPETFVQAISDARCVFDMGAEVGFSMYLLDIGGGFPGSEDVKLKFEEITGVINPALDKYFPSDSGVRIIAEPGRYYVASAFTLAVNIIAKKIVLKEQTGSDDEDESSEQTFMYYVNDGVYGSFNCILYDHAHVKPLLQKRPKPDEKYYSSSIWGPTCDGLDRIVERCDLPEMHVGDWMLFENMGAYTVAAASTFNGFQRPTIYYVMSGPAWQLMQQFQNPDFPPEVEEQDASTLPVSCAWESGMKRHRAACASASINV
Protocol: FIGS. 1A-1H. Herbacetin binds directly to ODC and inhibits ODC activity. (a) Chemical structure of herbacetin, a new allosteric ODC inhibitor. (b) Computer modeling of herbacetin and the ODC protein crystal structure. […] (c, upper panel) Recombinant ODC, (c, lower panel) HCT116 colon cancer cell lysate or (d) ectopically expressed ODC (WT, mutant D44A, D243A and E384A) cells were incubated with herbacetin-conjugated Sepharose 4B beads or with Sepharose 4B beads alone. Proteins were pulled down using anti-Xpress and then analyzed by Western blotting. The effect of herbacetin on ODC activity was assessed using a (e) recombinant ODC protein, (f) HCT116 colon cancer cells, or (g) TPA-treated JB6 mouse skin epidermal cells. (h) The effect of herbacetin on ectopically expressed ODC (WT, D44A, D243A, E384A) activity was measured as the release of CO2 from L-[1-C^14] ornithine. For e-h, data are represented as means±S.D. of values from triplicate experiments and the asterisk (*) indicates a significant difference (p<0.05) between herbacetin- or DFMO-treated samples compared to untreated controls. WB, Western blot.
(§1) ODC activity was measured as the release of CO2 from L-[1-C^14] ornithine as previously described ([…]).

ODC [2] = target: T2, ODC (Homo sapiens, UniProt P11926); assay: ODC enzyme assay with recombinant ODC protein; assay type: biochemical; conditions: in vitro
T2 sequence (P11926 1-461): T1 sequence (P11926 1-461 D44A) with A44D
Protocol: (§2) FIGS. 5A-5E. The effect of herbacetin on ODC activity was assessed in (a) DLD-1 and (b) HCT116 colon cancer cells. Cell lysates were incubated for 15 min with reaction buffer and different doses of herbacetin or DFMO and then incubated at 37° C. for 1 h. Herbacetin (c) and kaempferol (d) were modeled as allosteric inhibitors with the ODC crystal structure. (e) The effect of herbacetin or kaempferol on ODC activity was assessed using a human ODC recombinant protein. Each reaction was incubated at 37° C. for 1 h and ODC activity was measured as the release of CO2 from L-[1-C^14] ornithine. Data are represented as means±S.D. of triplicate values. The asterisk (*) indicates a significant difference (p<0.05) between herbacetin-treated samples compared to untreated or kaempferol-treated samples.
as §1

ODC [3] = target: T2, ODC; assay: ODC activity in colon cancer cells (HCT116, DLD-1 lysates); assay type: cell-based; parameters: endogenous in cells; host or cells: HCT116 and DLD-1 colon cancer cells (lysates); conditions: compared with DFMO
Protocol: as §2, §1

[4] = system: SKH-1 hairless mice, DMBA/TPA; assay: TPA-induced skin cancer prevention study, 30 weeks (Example 2); assay type: in vivo, mouse
Protocol: For the effect of herbacetin on preventing TPA-induced skin cancer, SKH-1 hairless mice were divided into 5 groups of 26-30 mice/group. All mice were initiated with 200 nmol DMBA applied topically on the dorsal surface. Two weeks later, TPA (17 nmol) was applied topically on the dorsal surface twice a week for a total of 30 weeks. Four groups of mice were treated with herbacetin (20, 100, 200, or 500 nmol) 30 min before application of TPA.

HCT116 cells = assay: HCT116 xenograft in athymic nude mice; assay type: in vivo, mouse
Protocol: Athymic nude mice were inoculated in the right flank with HCT116 cells. Tumors were allowed to grow to an average of 40 mm^3 and then mice were divided into four equal groups with the same average tumor volume (FIG. 10). Treatment was initiated on Day 8 and continued to Day 20. […] No difference between treatment with 0.4 mg/kg B.W. herbacetin, 2 mg/kg B.W herbacetin or 200 mg/kg DFMO was observed.

[5] = target: T1, ODC (WT, D44A, D243A, E384A); assay: pull-down assay with ectopically expressed ODC mutants in HCT116 cells; assay type: binding; conditions: D44A mutant compared with D243A, E384A and WT
Protocol: A recombinant human ODC protein (200 ng) or total cell lysates (500 μg) to were incubated with herbacetin Sepharose 4B (or Sepharose 4B only as a control) beads (50 μl, 50% slurry) in reaction buffer (50 mM Tris pH 7.5, 5 mM EDTA, 150 mM NaCl, 1 mM DTT, 0.01% NP40, 2 μg/mL bovine serum albumin). After incubation with gentle rocking overnight at 4° C., the beads were washed 5 times with buffer (50 mM Tris pH 7.5, 5 mM EDTA, 150 mM NaCl, 1 mM DTT, 0.01% NP40) and binding was determined by Western blotting.

**Q.** Which “susceptibility of ODC D44A mutant activity to herbacetin” value [1] does the source give for O=c1c(O)c(-c2ccc(O)cc2)oc2c(O)c(O)cc(O)c12 [herbacetin, 3,5,7,8,4′-Pentahydroxyflavone] here?
**A.** less susceptible

**Q.** What about the “ODC activity (release of CO2 from L-[1-C^14] ornithine)” value (ODC [2]) of the same molecule?
**A.** inhibited ODC activity similarly

**Q.** And the “suppression of ODC activity” value (ODC [3])?
**A.** more effectively; also recorded: markedly more effective than DFMO

**Q.** What about the “tumor growth induced by TPA” value ([4]; herbacetin 20, 100, 200 or 500 nmol 30 min before TPA, 30 weeks) of the same molecule?
**A.** decreased tumor growth

**Q.** What about the “mice developing papillomas (incidence)” value ([4]; vs untreated control mice) of the same molecule?
**A.** Fewer mice developed papillomas

**Q.** What about the number of papillomas ([4]; vs untreated control mice) of the same molecule?
**A.** fewer papillomas (dose-dependent)

**Q.** And the tumor size ([4]; vs untreated controls)?
**A.** significantly smaller tumors

**Q.** What about the “potency as therapeutic agent relative to DFMO” value (HCT116 cells; based on concentration) of the same molecule?
**A.** much more potent

**Q.** What about the “tumor volume, comparison between treated groups” value (HCT116 cells; herbacetin 0.4 mg/kg, 2 mg/kg, DFMO 200 mg/kg) of the same molecule?
**A.** No difference

**Q.** What about the “tumor volume, treated groups vs vehicle-treated group” value (HCT116 cells; herbacetin 0.4 or 2 mg/kg B.W., DFMO 200 mg/kg, Day 8 to Day 20) of the same molecule?
**A.** vehicle-treated group were significantly large in volume than any of the three treated groups

**Q.** And the “binding affinity of ODC mutant with herbacetin” value [5]?
**A.** most reduced binding affinity
